Test system: Pten^pc−/−; Pml^pc−/− prostate tumors
Test: In vivo CXCR2 antagonist treatment of Pten^pc−/−; Pml^pc−/− mice (MRI, flow cytometry)
Set-up: species or system mouse
Settings: for tumor growth (tumor volume by MRI): Pml^pc−/− mice, 5 mg/kg intraperitoneal daily for 14 days, vs vehicle, 5 mg/kg
Description: Mice were allocated at random to experimental groups and studies were performed in an unblended manner. For treatment with the CXCR2 antagonist, SB225002 (Cayman Chemical #13336) was dissolved in DMSO (10 mg/ml) and diluted in vehicle (0.9% NaCl, 0.3% Tween 80) for in vivo administration. Mice (4 months of age) were treated daily for 10 days by intraperitoneal injection (5 mg/kg) and prostate tumor tissue (anterior lobes) was subjected to Flow Cytometry and histological analysis. For MRI analysis, mice (4 months of age) were treated daily for 21 days (Pten^pc-/-; Zbtb7a^pc-/-), for 14 days (Pten^pc-/-; Trp53^pc-/-) or for 14 days (Pten^pc-/-; Pml^pc-/-) by intraperitoneal injection (5 mg/kg). For depletion of Gr-1+/CD11b+ cells, Ly6G-depletion antibody (1A8, BioXcell) and control Rat IgG2a antibody (BioXcell) were diluted in phosphate-buffered saline (PBS) for in vivo administration. Mice (4 months of age) were treated every other day for 10 days by intraperitoneal injection (200-300 μg/mouse). InVivoMAb anti-mouse Ly6G/Ly6C (Gr-1) antibody, clone RB6-8C5 (BE0075, BioXcell), and control Rat IgG2b antibody (BE0090, BioXcell) were diluted in PBS and Pten^pc-/-; Trp53^pc-/- mice were treated every other day for 14 days by intraperitoneal injection (200 μg/mouse). For neutralization of CXCL5, anti-Mouse CXCL5 antibody (Leinco Technologies) and control Rat IgG2a antibody (BioXcell) were diluted in PBS and injected every other day for 21 days by intraperitoneal injection (20 μg/mouse). Tumor volume quantification was performed by using VivoQuant and Image J software. All mouse prostate MRI imaging analysis was performed at Small Animal Imaging Core at BIDMC and acquired on an […] Model M2 1T tabletop scanner. For Flow Cytometry, spleen and lymph node single cell suspensions were prepared by mashing the tissue in 2% FBS/PBS. […] All staining mixtures were analyzed on a BD LSR II flow cytometer (Becton Dickinson). Resulting profiles were further processed and analyzed using the FlowJo 8.7 software.

## O=C(Nc1ccc([N+](=O)[O-])cc1O)Nc1ccccc1Br [SB225002]
  tumor growth (tumor volume by MRI): did not show any significant response
Listed as CXCR2i
  tumor growth (tumor volume by MRI): did not respond
Pml^pc−/− prostate tumors after treatment
  intra-tumoral Gr-1+/CD11b+ cells (flow cytometry): decrease of Gr-1+/CD11b+ cells

From patent US20210277102A1, “COMPOSITIONS AND METHODS FOR TREATING A TUMOR SUPPRESSOR DEFICIENT CANCER” (BETH ISRAEL DEACONESS MEDICAL CENTER, INC., priority 2016, published 2021)
